Data as given in US6448269B1 (Eli Lilly and Company, priority 1993, dated 2002).
Counter-ions that a name gives are not always drawn.

Tests used:
GPIIb-IIIa = target: T1, GPIIb-IIIa (Homo sapiens, UniProt P05106+P08514); experiment: ELISA IIb-IIIa assay (fibrinogen binding to immobilized GPIIb-IIIa); details: purified platelet GPIIb-IIIa receptor coated on ELISA plates; biotin-labeled fibrinogen 10 nM, 3 hours at 25° C.
T1 construct: Purified platelet GPIIb-IIIa receptor was prepared as described by Fitzgerald; from tissue; host or cells: platelets
T1 sequence (P08514 32-887 limits assumed): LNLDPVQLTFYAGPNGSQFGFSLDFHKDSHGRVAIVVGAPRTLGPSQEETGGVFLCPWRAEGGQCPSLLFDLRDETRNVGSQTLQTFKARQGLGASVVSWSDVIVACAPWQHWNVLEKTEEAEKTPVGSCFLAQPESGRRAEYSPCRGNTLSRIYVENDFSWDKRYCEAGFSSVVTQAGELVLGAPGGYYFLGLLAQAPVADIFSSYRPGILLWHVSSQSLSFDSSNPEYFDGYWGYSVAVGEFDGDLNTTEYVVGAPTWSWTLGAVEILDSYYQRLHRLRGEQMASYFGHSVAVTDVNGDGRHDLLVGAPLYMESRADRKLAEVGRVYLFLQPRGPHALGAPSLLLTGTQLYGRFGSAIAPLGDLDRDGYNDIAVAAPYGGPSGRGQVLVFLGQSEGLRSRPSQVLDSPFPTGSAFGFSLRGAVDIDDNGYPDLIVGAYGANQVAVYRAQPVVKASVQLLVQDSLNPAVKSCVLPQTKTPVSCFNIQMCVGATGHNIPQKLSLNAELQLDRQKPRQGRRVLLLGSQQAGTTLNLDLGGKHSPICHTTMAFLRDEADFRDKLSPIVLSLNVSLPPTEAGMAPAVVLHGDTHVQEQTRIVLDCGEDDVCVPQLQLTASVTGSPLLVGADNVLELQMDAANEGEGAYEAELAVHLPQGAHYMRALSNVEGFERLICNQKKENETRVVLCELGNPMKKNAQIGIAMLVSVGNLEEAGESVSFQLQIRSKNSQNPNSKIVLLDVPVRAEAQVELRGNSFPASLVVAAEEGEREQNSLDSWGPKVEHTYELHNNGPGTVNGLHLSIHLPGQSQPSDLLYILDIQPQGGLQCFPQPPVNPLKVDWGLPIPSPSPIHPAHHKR
T1 sequence (P05106 27-788): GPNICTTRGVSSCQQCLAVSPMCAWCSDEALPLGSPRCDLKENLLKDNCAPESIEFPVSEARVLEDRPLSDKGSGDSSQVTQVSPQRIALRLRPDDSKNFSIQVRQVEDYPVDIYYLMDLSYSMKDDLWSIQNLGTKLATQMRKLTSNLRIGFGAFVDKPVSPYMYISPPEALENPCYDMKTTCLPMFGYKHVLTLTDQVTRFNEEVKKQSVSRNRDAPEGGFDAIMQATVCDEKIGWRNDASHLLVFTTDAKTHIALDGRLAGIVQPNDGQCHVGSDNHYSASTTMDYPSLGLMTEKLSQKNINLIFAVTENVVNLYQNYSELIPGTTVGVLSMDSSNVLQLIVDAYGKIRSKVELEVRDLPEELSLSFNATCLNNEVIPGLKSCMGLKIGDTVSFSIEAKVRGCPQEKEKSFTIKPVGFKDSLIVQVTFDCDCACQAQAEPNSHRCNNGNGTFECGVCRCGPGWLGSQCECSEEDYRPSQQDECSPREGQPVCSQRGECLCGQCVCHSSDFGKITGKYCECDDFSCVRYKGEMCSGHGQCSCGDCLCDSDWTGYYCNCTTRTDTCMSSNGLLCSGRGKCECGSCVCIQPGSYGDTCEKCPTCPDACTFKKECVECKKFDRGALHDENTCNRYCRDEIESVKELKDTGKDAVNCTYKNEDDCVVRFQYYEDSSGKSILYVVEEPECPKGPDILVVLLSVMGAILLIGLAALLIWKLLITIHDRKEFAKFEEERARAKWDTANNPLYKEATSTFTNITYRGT
Procedure: In the following assay, GPIIb-IIIa is prepared in purified form, by a method such as described by Fitzgerald, L. A., et al., Anal Biochem (1985) 151:169-177, (the disclosure of which is incorporated herein by reference). GPIIb-IIIa is coated onto microtiter plates. The coated support is then contacted with fibrinogen and with the test material (e.g., compounds of Formula I) and incubated for a sufficient time to permit maximal binding of fibrinogen to the immobilized GPIIb-IIIa. Fibrinogen is typically provided at a concentration of about 5-50 nM and the test material can, if desired, be added at a series of dilution. Typical incubations are 2 to 4 hours at 25° C., the time and temperature being interdependent.
After incubation, the solution containing the fibrinogen and test material is removed and the level of binding of fibrinogen measured by quantitating bound fibrinogen to GPIIb-IIIa. Any suitable means of detection may be used, but it is convenient to employ labeled fibrinogen, for example using biotinylated labels. Such methods are well known in the art.
Purified platelet GPIIb-IIIa receptor was prepared as described by Fitzgerald, L. A., et al., Anal Biochem (1985) 151:169-177 (1985). Vitronectin receptor was prepared as described by Smith, J. W., J. Biol Chem (1988) 263:18726-18731. After purification, the receptors were stored in 0.1% Triton X-100 at 0.1-1.0 mg/ml.
The receptors were coated to the wells of 96-well flat-bottom ELISA plates (Linbro EIA-Plus microtiter plate, Flow Laboratories) after diluting 1:200 with a solution of 20 mM Tris-HCl, 150 mM NaCl, 1 mM CaCl2, pH 7.4, to reduce the Triton X-100 concentration to below its critical micellar concentration and adding an aliquot of 100 ul to each well. The wells were all allowed to incubate overnight at 4° C., and then aspirated to dryness. Additional sites were blocked by the addition of bovine serum albumin (BSA) at 35 mg/ml in the above buffer for 2 hours at 30° C. to prevent nonspecific binding. The wells were then washed once with binding buffer ([…] Tris-HCl, 100 mM NaCl 2 mM CaCl2, 1 mg/ml BSA).
The corresponding ligands (fibrinogen, von Willebrand Factor, or vitronectin) were conjugated to biotin using commercially available reagents and standard protocols. The labeled ligands were added to the receptor-coated wells at final concentration of 10 nM (100 ul/well) and incubated for 3 hours at 25° C. in the presence or absence of the test samples. After incubation, the wells are aspirated to dryness and bound ligand is quantitated.
The bound protein is detected by the addition of antibiotin antibody conjugated to alkaline phosphatase followed by addition of substrate (p-nitrophenyl phosphate), and determination of the optical density of each well at […]. Decreased color development is observed in wells incubated with test samples which inhibit binding of ligand to receptor.

[1] = system: human platelet-rich plasma; experiment: Platelet aggregation assay (Aggregation-Human PRP/ADP); assay type: cell-based; details: 1 min; human platelet-rich plasma incubated with compound 1 minute at 37° C.; ADP-induced aggregation; read-out: Agg: Human PRP/ADP IC50uM
Procedure: Platelet-rich plasma was prepared from healthy human volunteers for use in determining inhibition of platelet aggregation by the compounds.
Platelet-rich plasma was prepared at room temperature by centrifugation of the citrated whole blood at 100×g for 12 minutes. The platelet rich plasma contained approximately 200-400,000 platelets/μl.
Platelet-poor plasma was prepared by centrifugation of citrated whole blood at 12,000×g for 2 minutes.
Platelet aggregation was assayed in a 4-channel platelet aggregation profiler (PAP-4, Biodata, Hatboro, Pa.) according to the manufacturers directions. Inhibition of platelet aggregation was studied by adding varying amounts of […] to stirred human platelet-rich plasma. Specifically, the human platelet-rich plasma was incubated with the compound being tested for 1 minute at 37° C. prior to the addition of a variety of aggregating agents most often ADP 5 μM, but also 1 μg/ml collagen, 1 μM U46619 and 0.3 μM platelet activating factor.

SMILES	IC50 (GPIIb-IIIa) [nM]	IC50 [1] [µM]
CCOC(=O)CCC1(C)CCc2cc(NC(=O)c3ccc(C(=N)N)cc3)ccc2O1 (racemic) [Example 50, Ethyl rac-3-(6-(N-(4-(Aminoiminomethyl)benzoyl)amino)-3,4-dihydro-2-methyl-2H-1-benzopyran-2-yl)propanoate Hydrochloride]	3930	100
CC1(CCC(=O)O)C=Cc2cc(OCc3ccc(C(=N)N)cc3)ccc2O1 (racemic) [Example 53, rac-3-(6-(4-(Aminoiminomethyl)phenylmethoxy)-2-methyl-2H-1-benzopyran-2-yl)propanoic Acid Hydrochloride]	720	21
N=C(N)CCCCCOc1ccc2c(c1)CCC(CC(=O)O)O2 (racemic) [Example 55, rac-(6-(5-(Aminoiminomethyl)pentoxy)-3,4-dihydro-2H-1-benzopyran-2-yl)acetic Acid Trifluoroacetate]	3460	> 100
CC1(CCC(=O)O)CCc2cc(NC(=O)c3ccc(C(=N)N)cc3)ccc2O1 (racemic) [Example 56, rac-3-(6-(N-(4-(Aminoiminomethyl)benzoyl)amino)-3,4-dihydro-2-methyl-2H-1-benzopyran-2-yl)propanoic Acid]	140	0.9
CCOC(=O)CC1CCc2cc(NC(=O)c3ccc(C(=N)NC)cc3)ccc2O1 (racemic) [Example 57, Hydrochloride]	> 10000	0.66
CNC(=N)c1ccc(C(=O)Nc2ccc3c(c2)CCC(CC(=O)O)O3)cc1 (racemic) [Example 58, rac-(3,4-Dihydro-6-(N-(4-((methylamino)iminomethyl)benzoyl)amino)-2H-1-benzopyran-2-yl)acetic Acid]	33.4	0.28
CC1(CCCCCCCCC(=O)O)C=Cc2cc(C(=N)N)ccc2O1 (racemic) [Example 60, rac-9-(6-Aminoiminomethyl-2-methyl-2H-1-benzopyran-2-yl)nonanoic Acid]	1800	> 10
O=C(O)CC1CCc2cc(OCCC3CCNCC3)ccc2O1 (racemic) [Example 61, rac-(3,4-Dihydro-6-(2-(piperidin-4-yl)ethoxy)-2H-1-benzopyran-2-yl)acetic Acid Trifluoroacetate]	> 1000	100
N=C(N)c1ccc(C(=O)Nc2ccc3c(c2)CCC(CC(=O)O)C3=O)c(Cl)c1 (racemic) [Example 63, rac-(6-(N-(4-Aminoiminomethyl-2-chlorobenzoyl)amino)-1-oxo-1,2,3,4-tetrahydronaphthalen-2-yl)acetic Acid]	9.4	0.092
CCOC(=O)CC1CCc2cc(NC(=O)c3ccc(NC(=N)N)cc3)ccc2O1 (racemic) [Example 64, Ethyl rac-(6-(N-(4-((Aminoiminomethyl)amino)benzoyl)amino)-3,4-dihydro-2H-1-benzopyran-2-yl)acetate]	800	11
N=C(N)Nc1ccc(C(=O)Nc2ccc3c(c2)CCC(CC(=O)O)O3)cc1 (racemic) [Example 65, rac-(6-(N-(4-((Aminoiminomethyl)amino)benzoyl)amino)-3,4-dihydro-2H-1-benzopyran-2-yl)acetic Acid]	180	4.8
CCOC(=O)CC1CCc2cc(NC(=O)c3ccc(C(=N)N)cc3F)ccc2O1 (racemic) [Example 69, Ethyl rac-(6-(N-(4-(Aminoiminomethyl)-2-fluorobenzoyl)amino)-3,4-dihydro-2H-1-benzopyran-2-yl)acetate Hydrochloride]	9	0.16
N=C(N)c1ccc(C(=O)Nc2ccc3c(c2)CCC(CC(=O)O)O3)c(F)c1 (racemic) [Example 70, rac-(6-(N-(4-(Aminoiminomethyl)-2-fluorobenzoyl)amino)-3,4-dihydro-2H-1-benzopyran-2-yl)acetic Acid]	1.3	0.082
CCNC(=N)c1ccc(C(=O)Nc2ccc3c(c2)CCC(CC(=O)OCC)O3)cc1 (racemic) [Example 71, Hydrochloride]	> 10000	1.5
CCNC(=N)c1ccc(C(=O)Nc2ccc3c(c2)CCC(CC(=O)O)O3)cc1 (racemic) [Example 72, rac-(3,4-Dihydro-6-(N-(4-((ethylamino)iminomethyl)benzoyl)amino)-2H-1-benzopyran-2-yl)acetic Acid]	18.5	0.28
CCOC(=O)CC1CCc2cc(NC(=O)c3ccc(C(=N)N(C)C)cc3)ccc2O1 (racemic) [Example 73, Hydrochloride]	> 10000	1.2
N=C(N)c1ccc(C(=O)Nc2ccc3c(c2)CCC(CC(=O)O)O3)c(Cl)c1 (racemic) [Example 76, rac-(6-(N-(4-(Aminoiminomethyl)-2-chlorobenzoyl)amino)-3,4-dihydro-2H-1-benzopyran-2-yl)acetic Acid]	14	0.56
